Measured values reported in patent publication US20100331331A1, “THERAPEUTIC COMPOSITIONS AND THE USE THEREOF” (priority 2007, published 2010).

Key:
CYP3A = CYP3A probe substrate midazolam pharmacokinetics with EVG/ATV versus EVG/r; conditions: midazolam oral syrup 5 mg with last dose; EVG/ATV vs. EVG/r
Description: (§1) Healthy subjects received EVG/r 300/100 mg or EVG/ATV 300/400 mg in a randomized, crossover manner for 10 days each, with the last dose being coadministered with the CYP3A probe substrate midazolam (oral syrup; 5 mg) and pharmacokinetic (PK) sampling performed. […] ATV, midazolam, and ritonavir pharmacokinetics were also determined for descriptive statistics.

[1] = Pharmacokinetic interaction between atazanavir/r and the Compound, steady-state PK in healthy subjects (studies 1 and 2); assay type: in vivo, human; conditions: for AUCtau % GMR (90% CI) / Cmax % GMR (90% CI) / Ctau % GMR (90% CI): coadministration:alone, 14 days
Text: In study 1, 33/61 and study 2, 19/30 subjects completed each study; discontinuations were mostly for known ATV adverse events.

[2] = Pharmacokinetic interaction between atazanavir and the Compound: EVG/ATV versus EVG/r crossover in healthy subjects; conditions: for half-life: human, plasma
Description: This study evaluated the safety and steady-state pharmacokinetics of the co-administered Compound and ATV.
as §1

[3] = Similar studies of the effect of five protease inhibitors on the pharmacokinetics of the Compound; assay type: in vivo; conditions: protease inhibitors with ritonavir 100 mg QD to 200 mg BID
Description: These studies employed various doses of ritonavir (100 mg QD to 200 mg BID).

[4] = Study 1, the Compound 200 mg (test and reference) + ATV/r 300/100 mg QD, n=33
[5] = Study 2, the Compound test 85 mg, reference 150 mg, ATV/r 300/100 mg QD, n=20
[6] = EVG/ATV 300/400 mg vs. EVG/r 300/100 mg, 10 days each, n=14
[7] = ATV 400 mg coadministered with EVG 300 mg

Cc1ncc2n1-c1ccc(Cl)cc1C(c1ccccc1F)=NC2 [midazolam]
AUCinf geometric mean ratio (90% CI) (CYP3A): 89.5 (80.7, 99.3) % | Cmax geometric mean ratio (90% CI) (CYP3A): 98.8 (89.6, 109) %

COc1cc2c(cc1Cc1cccc(Cl)c1F)c(=O)c(C(=O)O)cn2[C@H](CO)C(C)C [the Compound, 6-(3-chloro-2-fluorobenzyl)-1-[(2S)-1-hydroxy-3-methylbutan-2-yl]-7-methoxy-4-oxo-1,4-dihydroquinoline-3-carboxylic acid]
systemic exposure ([1]; 85 mg of the Compound with ritonavir-boosted atazanavir versus 150 mg dose of the Compound alone): equivalent | AUCtau % GMR (90% CI) [1, 4]: 200% | Cmax % GMR (90% CI) [1, 4]: 185% | Ctau % GMR (90% CI) [1, 4]: 288% | AUCtau % GMR (90% CI) [1, 5]: 107% | Cmax % GMR (90% CI) [1, 5]: 90.9% | Ctau % GMR (90% CI) [1, 5]: 138% | exposures upon coadministration with ATV/r ([1]; coadministration with ATV/r): elevated | systemic exposure ([2]; 300 mg of the Compound with atazanavir versus 300 mg with ritonavir): equivalent | AUCtau geometric mean ratio (90% CI) [2, 6]: 107 (95.6, 119) % | Cmax geometric mean ratio (90% CI) [2, 6]: 108 (99, 119) % | Ctau geometric mean ratio (90% CI) [2, 6]: 89.9 (71.4, 113) % | adverse events ([2]; EVG/r 300/100 mg or EVG/ATV 300/400 mg, 10 days each, healthy subjects): No grade 4 AE or serious AE were observed | half-life ([2]; median T1/2, EVG/ATV 300/400 mg): 5.2 h | half-life ([2]; median T1/2, EVG/r 300/100 mg): 6.3 h

COC(=O)N[C@H](C(=O)N[C@@H](Cc1ccccc1)[C@@H](O)CN(Cc1ccc(-c2ccccn2)cc1)NC(=O)[C@@H](NC(=O)OC)C(C)(C)C)C(C)(C)C [ATV, 1-[4-(pyridine-2-yl)-phenyl]-4(S)-2,5-bis-[N-(N-methoxycarbonyl-(L)-tert-leucyl)amino]-6-phenyl-2-axahexane, reference compound]
AUCtau and Ctau compared with historical data [2, 7]: lower than historical data | Mean (% CV) Ctau [2, 7]: 74.5 (45.7%) ng/ml | effect on the pharmacokinetics of the Compound [3]: improved pharmacokinetic effect
